Test results as given in patent publication US10336691B2, “Pesticidally active oxime and hydrazone derivatives” (Syngenta Participations AG, priority 2015, dated 2019).
Read-outs that look alike come from different tables or passages of the source.

Legend:
Format in all cases: in vivo
Spodoptera littoralis = Spodoptera littoralis (Egyptian cotton leaf worm) cotton leaf disc spray test, L1 larvae; details: foliar, 72 h, read-out: control (at least one of mortality, anti-feedant effect, and growth inhibition)
Experimental: Spodoptera littoralis (Egyptian Cotton Leaf Worm)
Cotton leaf discs were placed on agar in 24-well microtiter plates and sprayed with aqueous test solutions prepared from 10,000 ppm DMSO stock solutions. After drying, the leaf discs were infested with five L1 larvae. The samples were assessed for mortality, anti-feedant effect, and growth inhibition in comparison to untreated samples 3 days after infestation. Control of Spodoptera littoralis by a test sample is when at least one of mortality, anti-feedant effect, and growth inhibition is higher than the untreated sample.

Plutella xylostella = Plutella xylostella (diamond back moth) artificial diet test, L2 larvae; details: 120 h, read-out: effect in at least one of the two categories (mortality or growth inhibition); for percent effect (mortality or growth inhibition) at 200 ppm: application rate of 200 ppm, 5 days after infestation, in comparison to untreated samples
Experimental: Plutella xylostella (Diamond Back Moth)
(§1) 24-well microtiter plates with artificial diet were treated with aqueous test solutions prepared from 10,000 ppm DMSO stock solutions by pipetting. After drying, the plates were infested with L2 larvae (10 to 15 per well). The samples were assessed for mortality and growth inhibition in comparison to untreated samples 5 days after infestation.

Diabrotica balteata = Diabrotica balteata (corn root worm) maize sprout spray test, L2 larvae; details: 96 h, read-out: effect in at least one of the two categories (mortality or growth inhibition); for percent effect (mortality or growth inhibition) at 200 ppm: application rate of 200 ppm, 4 days after infestation, in comparison to untreated samples
Experimental: Diabrotica balteata (Corn Root Worm)
as §1, with “Maize sprouts, placed on an agar layer in 24-well” for “24-well”, “plates” for “plates with artificial diet”, “spraying.” for “pipetting.”, “(6” for “(10”, “10” for “15”, “4” for “5”

[1] = application rate of 200 ppm, 3 days after infestation, in comparison to untreated samples

| Structure (SMILES) | mortality at 200 ppm (Spodoptera littoralis; [1]) [%] | percent effect (mortality or growth inhibition) at 200 ppm (Plutella xylostella) [%] | percent effect (mortality or growth inhibition) at 200 ppm (Diabrotica balteata) [%] | other results |
| --- | --- | --- | --- | --- |
| Cc1cccc(C)c1NC(=O)N/N=C/c1ccc(O/N=C2\CCc3cc(OC(F)(F)F)ccc32)cc1 [Compound 1, 1-(2,6-dimethylphenyl)-3-[[4-[[5-(trifluoromethoxy)indan-1-ylidene]amino]oxyphenyl]methylene-amino]urea] | ≥ 80 | ≥ 80 | ≥ 80 | – |
| C/C(=N\Oc1ccc(/C=N/OC(=O)Nc2c(C)cccc2C)cc1)c1ccc(OC(F)(F)F)cc1 [Compound 2, [[4-[1-[4-(trifluoromethoxy)phenyl]ethylidene-amino]oxyphenyl]methyleneamino] N-(2,6-dimethylphenyl) carbamate] | – | – | – | mortality at 200 ppm (Spodoptera littoralis): ≥ 80%; percent control (mortality or growth inhibition) at 200 ppm (Plutella xylostella): ≥ 80%; percent control (mortality or growth inhibition) at 200 ppm (Diabrotica balteata): ≥ 80% |
| C/C(=N\Nc1ccc(/C=N/NC(=S)Nc2c(C)cccc2C)cc1)c1ccc(OC(F)(F)F)cc1 [Compound 3, 1-(2,6-dimethylphenyl)-3-[[4-[2-[1-[4-(trifluoromethoxy)phenyl]ethylidene] hydrazino]phenyl]methyleneamino] thiourea] | ≥ 80 | ≥ 80 | ≥ 80 | – |
| CC(C)c1ccccc1NC(=O)N/N=C/c1ccc(O/N=C2\CCc3cc(OC(F)(F)F)ccc32)cc1 [Compound 4, 1-(2-isopropylphenyl)-3-[[4-[[5-(trifluoromethoxy)indan-1-ylidene]amino]oxyphenyl]methylene-amino]urea] | ≥ 80 | ≥ 80 | ≥ 80 | – |
| CC(C)c1ccccc1NC(=S)N/N=C/c1ccc(O/N=C2\CCc3cc(OC(F)(F)F)ccc32)cc1 [Compound 5, 1-(2-isopropylphenyl)-3-[[4-[[5-(trifluoromethoxy)indan-1-ylidene]amino]oxyphenyl]methylene-amino]thiourea] | ≥ 80 | ≥ 80 | ≥ 80 | – |
| C/C(=N\Oc1ccc(/C=N/NC(=O)Nc2ccccc2C(C)C)cc1)c1ccc(OC(F)(F)F)cc1 [Compound 6, 1-(2-isopropylphenyl)-3-[[4-[1-[4-(trifluoromethoxy)phenyl]ethylidene-amino]oxyphenyl]methylene-amino]urea] | – | ≥ 80 | ≥ 80 | – |
| C/C(=N\Oc1ccc(/C=N/NC(=O)Nc2c(C)cccc2C)cc1)c1ccc(OC(F)(F)F)cc1 [Compound 7, 1-(2,6-dimethylphenyl)-3-[[4-[1-[4-(trifluoromethoxy)phenyl]ethylidene-amino]oxyphenyl]methylene-amino]urea] | ≥ 80 | ≥ 80 | ≥ 80 | – |
| C/C(=N\Oc1ccc(/C=N/NC(=S)Nc2ccccc2C(C)C)cc1)c1ccc(OC(F)(F)F)cc1 [Compound 8, 1-(2-isopropylphenyl)-3-[[4-[1-[4-(trifluoromethoxy)phenyl]ethylidene-amino]oxyphenyl]methylene-amino]thiourea] | – | ≥ 80 | ≥ 80 | – |
| Cc1cccc(C)c1NC(=S)N/N=C/c1ccc(O/N=C2\CCc3cc(OC(F)(F)F)ccc32)cc1 [Compound 9, 1-(2,6-dimethylphenyl)-3-[[4-[[5-(trifluoromethoxy)indan-1-ylidene]amino]oxyphenyl]methylene-amino]thiourea] | ≥ 80 | ≥ 80 | ≥ 80 | – |
| C/C(=N\Oc1ccc(/C=N/NC(=S)Nc2c(C)cccc2C)cc1)c1ccc(OC(F)(F)F)cc1 [Compound 10, 1-(2,6-dimethylphenyl)-3-[[4-[1-[4-(trifluoromethoxy)phenyl]ethylidene-amino]oxyphenyl]methylene-amino]thiourea] | ≥ 80 | ≥ 80 | ≥ 80 | – |
| Cc1cccc(C)c1NC(=S)N/N=C/c1ccc(N/N=C2\CCc3cc(OC(F)(F)F)ccc32)cc1 [Compound 11, 1-(2,6-dimethylphenyl)-3-[[4-[2-[5-(trifluoromethoxy)indan-1-ylidene]hydrazino]phenyl]methylene-amino]thiourea] | ≥ 80 | ≥ 80 | ≥ 80 | – |
| C/C(=N\Nc1ccc(/C=N/OC(=O)Nc2c(C)cccc2C)cc1)c1ccc(C(F)(F)F)cc1 [Compound 12, [[4-[2-[1-[4-(trifluoromethyl)phenyl]ethylidene] hydrazino]phenyl]methyleneamino] N-(2,6-dimethylphenyl)carbamate] | – | – | – | percent control (mortality or growth inhibition) at 200 ppm (Diabrotica balteata): ≥ 80% |
| C/C(=N\Nc1ccc(/C=N/NC(=O)Nc2ccccc2C(C)C)cc1)c1cccc(OC(F)(F)F)c1 [Compound 13, 1-(2-isopropylphenyl)-3-[[4-[2-[1-[3-(trifluoromethoxy)phenyl]ethylidene] hydrazino]phenyl]methyleneamino] urea] | – | – | ≥ 80 | – |
| C/C(=N\Nc1ccc(/C=N/NC(=S)Nc2ccccc2C(C)C)cc1)c1cccc(OC(F)(F)F)c1 [Compound 14, 1-(2-isopropylphenyl)-3-[[4-[2-[1-[3-(trifluoromethoxy)phenyl]ethylidene] hydrazino]phenyl]methyleneamino] thiourea] | – | ≥ 80 | ≥ 80 | – |
| C/C(=N\Nc1ccc(/C=N/NC(=O)Nc2c(C)cccc2C)cc1)c1cccc(OC(F)(F)F)c1 [Compound 15, 1-(2,6-dimethylphenyl)-3-[[4-[2-[1-[3-(trifluoromethoxy)phenyl]ethylidene]hydrazino]phenyl]methylene-amino]urea] | – | ≥ 80 | – | – |
| C/C(=N\Nc1ccc(/C=N/NC(=S)Nc2c(C)cccc2C)cc1)c1cccc(OC(F)(F)F)c1 [Compound 16, 1-(2,6-dimethylphenyl)-3-[[4-[2-[1-[3-(trifluoromethoxy)phenyl]ethylidene] hydrazino]phenyl]methylene-amino]thiourea] | – | ≥ 80 | ≥ 80 | – |
| C/C(=N\Nc1ccc(/C=N/NC(=S)Nc2c(C)cccc2C)cc1)c1ccccc1OC(F)(F)F [Compound 18, 1-(2,6-dimethylphenyl)-3-[[4-[2-[1-[2-(trifluoromethoxy)phenyl]ethylidene] hydrazino]phenyl]methylene-amino]thiourea] | – | ≥ 80 | – | – |
| C/C(=N\Nc1ccc(/C=N/NC(=O)Nc2ccccc2C(C)C)cc1)c1ccc(C(F)(F)F)cc1 [Compound 19, 1-(2-isopropylphenyl)-3-[(E)-[4-[(2E)-2-[1-[4-(trifluoromethyl)phenyl]ethylidene] hydrazino]phenyl]methyleneamino] urea] | – | ≥ 80 | ≥ 80 | – |
| C/C(=N\Nc1ccc(/C=N/NC(=S)Nc2ccccc2C(C)C)cc1)c1ccccc1OC(F)(F)F [Compound 23, 1-(2-isopropylphenyl)-3-[(E)-[4-[(2E)-2-[1-[2-(trifluoromethoxy)phenyl]ethylidene] hydrazino]phenyl]methylene-amino]thiourea] | – | ≥ 80 | – | – |
| CC/C(=N\Nc1ccc(/C=N/NC(=O)Nc2ccccc2C(C)C)cc1)c1ccc(C(F)(F)F)cc1 [Compound 25, 1-(2-isopropylphenyl)-3-[(E)-[4-[(2E)-2-[1-[4-(trifluoromethyl)phenyl]propylidene] hydrazino]phenyl]methyleneamino] urea] | – | ≥ 80 | ≥ 80 | – |
| C/C(=N\Nc1ccc(/C=N/NC(=O)Nc2c(C)cccc2C)cc1)c1ccc(OC(F)F)cc1 [Compound 29, 1-[[4-[2-[1-[4-(difluoromethoxy)phenyl]ethylidene] hydrazino]phenyl]methyleneamino]-3-(2,6-dimethylphenyl)urea] | ≥ 80 | ≥ 80 | – | – |
| FC(F)(F)Oc1ccc2c(c1)CC/C2=N\Oc1ccc(/C=N/NC(=S)Nc2ccccc2C(F)(F)F)cc1 [Compound 30, 1-[[4-[[5-(trifluoromethoxy)indan-1-ylidene]amino]oxyphenyl]methylene-amino]-3-[2-(trifluoromethyl)phenyl]thiourea] | – | – | ≥ 80 | – |
| C/C(=N\Oc1ccc(/C=N/NC(=S)Nc2ccccc2C(F)(F)F)cc1)c1ccc(OC(F)(F)F)cc1 [Compound 31, 1-[[4-[1-[4-(trifluoromethoxy)phenyl]ethylidene-amino]oxyphenyl]methylene-amino]-3-[2-(trifluoromethyl)phenyl]thiourea] | – | – | ≥ 80 | – |
